Assays:
[1] = tested on: soybean plant; assay: Spot-on crop injury test on soybean leaf; format: in vivo; conditions: soybean at 2 trifoliate leaf stage, 2 micro liter droplet spotted on 2nd trifoliate leaf; glufosinate-ammonium 400,000 ng/plant, PPO inhibitor none or 0.2 ng/plant (weight ratio 1/2,000,000); visually estimated 6 days after treatment, % of total area of treated leaf
Text: One droplet having 2 micro liter of a commercial formulation of glufosinate-ammonium (manufactured by Bayer Cropscience KK under the trade name of Basta) having 200,000 ppm (200 g/L) of glufosinate-ammonium was spotted on the 2nd trifoliate leaf of a soybean plant at the stage of 2 trifoliate leaf.
6 days after the spot-on treatments, the injured area of the treated leaf was visually estimated as a percentage on the total area of the treated leaf.

[2] = tested on: corn plant; assay: Spot-on crop injury test on corn leaf; format: in vivo; conditions: corn at 2.5-leaf stage, 2 micro liter droplet spotted on 2nd leaf; glufosinate-ammonium 40,000 ng/plant, PPO inhibitor none or 20 ng/plant (weight ratio 1/2,000); visually estimated 3 days after treatment, % of total area of treated leaf
Text: 3 days after the spot-on treatments, the injured area of the treated leaf was visually estimated as a percentage on the total area of the treated leaf.

## CP(=O)(O)CCC(N)C(=O)O (centres unmarked) [Glufosinate-ammonium, glufosinate-ammonium]
[1]
  Injured leaf area: 70%
[2]
  Injured leaf area: 60%

Source: patent US10555528B1, “Herbicidal composition and method for controlling weeds” (SUMITOMO CHEMICAL COMPANY, LIMITED, priority 2019, dated 2020)
